{
  "source": "patent US11274129B2",
  "about": "“Methods for protein tyrosine phosphorylation profiling with variant SH2 domains” (priority 2016, dated 2022)",
  "key": {"[1]": {"test_system": "mixture of 54 different pTyr-including peptides derived from 54 TK activation loops", "assay": "Capture of pTyr-including peptides from a mixture of TK activation loop peptides, scheduled PRM", "format": "binding", "protocol": "Equal molar amounts (10 nmole) of the wild-type (wt) human Src SH2 domain and the DM and TrM human Src SH2 Superbinders (SEQ ID NO: 14 and 5, respectively) expressed with His6 and GST tags were used to capture pTyr-including peptides from a mixture of 54 different pTyr-including peptides (10 pmole each) derived from 54 TK activation loops. The isolated peptides were identified by PRM and quantified based on the corresponding MS peak area. 1.8% of the eluted peptides were injected into a Q-Exactive (Thermo Fisher) preceded with a nano-LC system.\nShown are the amounts of pTyr-including peptides captured, based on the corresponding peak area of PRM signal, by each of the parent human Src SH2 domain and the DM and TrM human Src SH2 Superbinders."}, "[2]": {"target": "VEGFR1-pTyr^1213 peptide DVRpYVNAAKF", "settings": "peptide VEGFR1-pTyr^1213 DVRpYVNAAKF; read-out: equilibrium dissociation constant (Kd); cited from earlier work"}, "[3]": {"target": "EGFR-pTyr^978 peptide PQRpYLVIQGD", "settings": "peptide EGFR-pTyr^978 PQRpYLVIQGD; read-out: equilibrium dissociation constant (Kd); cited from earlier work"}, "[4]": {"target": "EGFR-pTyr^1110 peptide NPVpYHNQPLN", "settings": "peptide EGFR-pTyr^1110 NPVpYHNQPLN; read-out: equilibrium dissociation constant (Kd); cited from earlier work"}, "[5]": {"target": "MidT-pTyr^324 peptide EPQpYEEIPIYL", "settings": "peptide MidT-pTyr^324 EPQpYEEIPIYL; read-out: equilibrium dissociation constant (Kd); cited from earlier work"}, "[6]": {"target": "RSKL-pTyr^423 peptide YQHpYDLDLKD", "settings": "peptide RSKL-pTyr^423 YQHpYDLDLKD; read-out: equilibrium dissociation constant (Kd); cited from earlier work"}, "[7]": {"target": "ShcA-pTyr^239 peptide DHQpYYNDFPG", "settings": "peptide ShcA-pTyr^239 DHQpYYNDFPG; read-out: equilibrium dissociation constant (Kd); cited from earlier work"}, "[8]": {"target": "ShcA-pTyr^317 peptide DPSpYVNVQNL", "settings": "peptide ShcA-pTyr^317 DPSpYVNVQNL; read-out: equilibrium dissociation constant (Kd); cited from earlier work"}, "Designed peptide GGpYGG": {"target": "Designed peptide GGpYGG", "settings": "read-out: equilibrium dissociation constant (Kd); cited from earlier work"}},
  "data": [
    {"substance": "Thr8Val/Cys10Ala: double-mutant human Src SH2 domain", "values": [
      {"measurement": "number of the 54 pTyr-including peptides captured / detected by PRM", "setting": "[1]; 10 nmole SH2 domain, 10 pmole each peptide", "result": 32},
      {"measurement": "PRM signal peak area", "setting": "[1]; BLK (pTyr389) IIDSEpYTAQEGAK, fragment ion b2", "result": 0},
      {"measurement": "PRM signal peak area", "setting": "[1]; BMX (pTyr566) YVLDDQpYVSSVGTK, fragment ion b2", "result": 0},
      {"measurement": "PRM signal peak area", "setting": "[1]; BTK (pTyr551) YVLDDEpYTSSVGSK, fragment ion b2", "result": "18,246"},
      {"measurement": "PRM signal peak area", "setting": "[1]; DDR1 (pTyr796/797) NLYAGDpYpYR, fragment ion b2", "result": "43,173"},
      {"measurement": "PRM signal peak area", "setting": "[1]; DDR2 (pTyr740/741) NLYSGDpYpYR, fragment ion y6", "result": "16,232"},
      {"measurement": "PRM signal peak area", "setting": "[1]; EPHA1 (pTyr781) LLDDFDGTpYETQGGK, fragment ion y9", "result": "12,335"},
      {"measurement": "PRM signal peak area", "setting": "[1]; EPHA2 (pTyr772) VLEDDPEATpYTTSGGK, fragment ion y11", "result": "4,858"},
      {"measurement": "PRM signal peak area", "setting": "[1]; EPHA3 (pTyr779) VLEDDPEAApYTTR, fragment ion y8", "result": 0},
      {"measurement": "PRM signal peak area", "setting": "[1]; EPHA6 (pTyr830) VLEDDPEAApYTTTGGK, fragment ion b2", "result": "51,066"},
      {"measurement": "PRM signal peak area", "setting": "[1]; EPHA8 (pTyr793) VLEDDPDAApYTTTGGK, fragment ion y11", "result": "57,102"},
      {"measurement": "PRM signal peak area", "setting": "[1]; EPHB1 (pTyr778) YLQDDTSDPTpYTSSLGGK, fragment ion y10", "result": 0},
      {"measurement": "PRM signal peak area", "setting": "[1]; EPHB2 (pTyr780) FLEDDTSDPTpYTSALGGK, fragment ion Y3", "result": "98,045"},
      {"measurement": "PRM signal peak area", "setting": "[1]; EPHB3 (pTyr792) FLEDDPSDPTpYTSSLGGK, fragment ion y10", "result": "14,654"},
      {"measurement": "PRM signal peak area", "setting": "[1]; EPHB4 (pTyr774) FLEENSSDPTpYTSSLGGK, fragment ion y10", "result": 0},
      {"measurement": "PRM signal peak area", "setting": "[1]; ERBB2 (pTyr877) LLDIDETEpYHADGGK, fragment ion b3", "result": "4,642"},
      {"measurement": "PRM signal peak area", "setting": "[1]; ERBB3 (pTyr866) QLLpYSEAK, fragment ion y2", "result": "151,587"},
      {"measurement": "PRM signal peak area", "setting": "[1]; FER (pTyr714) QEDGGVpYSSSGLK, fragment ion y7", "result": 0},
      {"measurement": "PRM signal peak area", "setting": "[1]; FES (pTyr713) EEADGVpYAASGGLR, fragment ion y8", "result": 0},
      {"measurement": "PRM signal peak area", "setting": "[1]; FGFR1 (pTyr653/654) DIHHIDpYpYK, fragment ion b6", "result": "28,967"},
      {"measurement": "PRM signal peak area", "setting": "[1]; FGFR2 (pTyr656/657) DINNIDpYpYK, fragment ion y4", "result": "39,469"},
      {"measurement": "PRM signal peak area", "setting": "[1]; FGFR3 (pTyr647/648) DVHNLDpYpYK, fragment ion b3", "result": "64,641"},
      {"measurement": "PRM signal peak area", "setting": "[1]; FGFR4 (pTyr642/643) GVHHIDpYpYK, fragment ion b3", "result": "29,983"},
      {"measurement": "PRM signal peak area", "setting": "[1]; FRK (pTyr387) VDNEDIpYESR, fragment ion y6", "result": 0},
      {"measurement": "PRM signal peak area", "setting": "[1]; GSK3 (pTyr279/216) GEPNVSpYICSR, fragment ion y6", "result": 0},
      {"measurement": "PRM signal peak area", "setting": "[1]; HCK (pTyr411) VIEDNEpYTAR, fragment ion b2", "result": 0},
      {"measurement": "PRM signal peak area", "setting": "[1]; INSRR (pTyr1145/1146) DVYETDpYpYR, fragment ion y5", "result": "7,794"},
      {"measurement": "PRM signal peak area", "setting": "[1]; ITK (pTyr512) FVLDDQpYTSSTGTK, fragment ion y11", "result": 0},
      {"measurement": "PRM signal peak area", "setting": "[1]; JAK1 (pTyr1034/1035) EpYpYTVK, fragment ion y2", "result": "46,193"},
      {"measurement": "PRM signal peak area", "setting": "[1]; JAK2 (pTyr221) IQDpYHILTR, fragment ion Y3", "result": "39,232"},
      {"measurement": "PRM signal peak area", "setting": "[1]; JAK3 (pTyr980/981) DpYpYVVR, fragment ion y2", "result": "10,521"},
      {"measurement": "PRM signal peak area", "setting": "[1]; KIT (pTyr823) NDSNpYVVK, fragment ion b2", "result": 0},
      {"measurement": "PRM signal peak area", "setting": "[1]; LMTK2 (pTyr295) EDpYIETDDK, fragment ion b2", "result": "1,124"},
      {"measurement": "PRM signal peak area", "setting": "[1]; LMTK3 (pTyr296/297) EDpYpYLTPER, fragment ion y3", "result": "78,610"},
      {"measurement": "PRM signal peak area", "setting": "[1]; MERTK (pTyr753/754) IYSGDpYpYR, fragment ion b2", "result": 0},
      {"measurement": "PRM signal peak area", "setting": "[1]; MET (pTyr1234/1235) EpYpYSVHNK, fragment ion y2", "result": "70,811"},
      {"measurement": "PRM signal peak area", "setting": "[1]; MUSK (pTyr755/756) NIYSADpYpYK, fragment ion y2", "result": 0},
      {"measurement": "PRM signal peak area", "setting": "[1]; NTRK1 (pTyr680/681) DIYSTDpYpYR, fragment ion b2", "result": "30,204"},
      {"measurement": "PRM signal peak area", "setting": "[1]; NTRK2 (pTyr706/707) DVYSTDpYpYR, fragment ion y4", "result": "22,794"},
      {"measurement": "PRM signal peak area", "setting": "[1]; PGFRB (pTyr857) DSNpYISK, fragment ion y2", "result": 0},
      {"measurement": "PRM signal peak area", "setting": "[1]; PTK7 (pTyr960/961) DVYNSEpYpYHFR, fragment ion b2", "result": "4,843"},
      {"measurement": "PRM signal peak area", "setting": "[1]; RET (pTyr905) DVYEEDSpYVK, fragment ion b2", "result": 0},
      {"measurement": "PRM signal peak area", "setting": "[1]; RON (pTyr1238/1239) EpYpYSVQQHR, fragment ion y4", "result": "17,370"},
      {"measurement": "PRM signal peak area", "setting": "[1]; ROR1 (pTyr645/646) EIYSADpYpYR, fragment ion y6", "result": "27,661"},
      {"measurement": "PRM signal peak area", "setting": "[1]; ROR2 (pTyr645/646) EVYAADpYpYK, fragment ion y5", "result": "60,460"},
      {"measurement": "PRM signal peak area", "setting": "[1]; SRC (pTyr419) LIEDNEpYTAR, fragment ion b2", "result": 0},
      {"measurement": "PRM signal peak area", "setting": "[1]; SRMS (pTyr380) DDIpYSPSSSSK, fragment ion y8", "result": 0},
      {"measurement": "PRM signal peak area", "setting": "[1]; TEC (pTyr519) YVLDDQpYTSSSGAK, fragment ion b2", "result": "4,818"},
      {"measurement": "PRM signal peak area", "setting": "[1]; TIE1 (pTyr1007) GEEVpYVK, fragment ion b2", "result": 0},
      {"measurement": "PRM signal peak area", "setting": "[1]; TIE2 (pTyr992) GQEVpYVK, fragment ion b2", "result": 0},
      {"measurement": "PRM signal peak area", "setting": "[1]; TXK (pTyr420) YVLDDEpYVSSFGAK, fragment ion b2", "result": "46,128"},
      {"measurement": "PRM signal peak area", "setting": "[1]; TYK2 (pTyr1054/1055) AVPEGHEpYpYR, fragment ion y6", "result": "9,679"},
      {"measurement": "PRM signal peak area", "setting": "[1]; VGFR1 (pTyr1053) NPDpYVR, fragment ion y3", "result": 0},
      {"measurement": "PRM signal peak area", "setting": "[1]; VGFR2 (pTyr1059) DPDpYVR, fragment ion Y3", "result": 0},
      {"measurement": "Kd", "setting": "[2]", "result": 1.8, "unit": "µM"},
      {"measurement": "Kd", "setting": "[3]", "result": 0.39, "unit": "µM"},
      {"measurement": "Kd", "setting": "[4]", "result": 4.5, "unit": "µM"},
      {"measurement": "Kd", "setting": "[5]", "result": 0.027, "unit": "µM"},
      {"measurement": "Kd", "setting": "[6]", "result": 0.9, "unit": "µM"},
      {"measurement": "Kd", "setting": "[7]", "result": 0.1, "unit": "µM"},
      {"measurement": "Kd", "setting": "[8]", "result": 0.39, "unit": "µM"},
      {"measurement": "Kd", "setting": "Designed peptide GGpYGG", "result": 25, "unit": "µM"}
    ]}
  ]
}
